Data taken from US20260265798A1, “Enzymes and Uses in Biocatalytic Halogenation of N-Heteroaryls Thereof” (Agency for Science, Technology and Research, priority 2022, published 2026).
Marks after values point to notes of the source that are not given here.

Key:
NT-11 PrnC = molecular target: T1, NT-11 PrnC (Pseudomonas fluorescens, UniProt P95482); assay: NT-11 PrnC-catalyzed halogenation, analytical scale biotransformation (in-vitro regioselective chlorination, substrate scope); assay type: biochemical; conditions: in-vitro chlorination by PrnC under optimized conditions; substrate 0.5 mM, MgCl2 10 mM, overnight 30° C.; HPLC
T1 construct: made in house; host or cells: T7 Express E. coli (NEB), pET-28a(+)
T1 sequence (P95482 with tags, fused parts or gaps): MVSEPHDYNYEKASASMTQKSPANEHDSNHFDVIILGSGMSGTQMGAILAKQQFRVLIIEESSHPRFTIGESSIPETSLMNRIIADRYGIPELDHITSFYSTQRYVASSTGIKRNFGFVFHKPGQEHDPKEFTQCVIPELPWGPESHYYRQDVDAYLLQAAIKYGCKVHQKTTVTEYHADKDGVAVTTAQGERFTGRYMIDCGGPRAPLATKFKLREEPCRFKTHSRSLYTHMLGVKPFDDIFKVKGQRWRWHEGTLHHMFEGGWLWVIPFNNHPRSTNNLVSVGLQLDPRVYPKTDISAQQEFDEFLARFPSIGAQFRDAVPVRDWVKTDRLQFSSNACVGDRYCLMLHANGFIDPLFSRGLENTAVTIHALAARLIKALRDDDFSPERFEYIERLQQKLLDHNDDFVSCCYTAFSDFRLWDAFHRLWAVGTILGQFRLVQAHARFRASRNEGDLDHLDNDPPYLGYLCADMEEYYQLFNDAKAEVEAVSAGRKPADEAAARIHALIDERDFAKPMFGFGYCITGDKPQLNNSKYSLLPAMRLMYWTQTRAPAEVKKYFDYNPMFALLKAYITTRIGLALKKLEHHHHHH
Description: NT-11 PrnC-Catalyzed halogenation. In a solution containing the pyrrolic derivative starting material (0.5 mM), MgCl2/MgBr2 (10 mM), glucose (5.0 mM), FAD ([…]), NT-11 PrnC (12.5 μM), Fre ([…]) and Gdhi (2.5 μM) in 10 mM potassium phosphate buffer, NADH (2.5 mM) was added to a total volume of 200 μL. After an overnight incubation of 30° C. and orbital shaking at 350 rpm, reactions were quenched with an equivalent volume of MeOH, pelleted by centrifugation (15000 rpm for 10 min) and the supernatant analyzed by HPLC-MS using the analytical HPLC method.
Analytical HPLC Method. 10 μL of the supernatant injected onto SecurityGuard™ column (KJ0-4282) with a (4.0 mm×3.0 mm) guard cartridge before separation using a Phenomenex Gemini® C18 analytical column (5 μm packing, 150 mm×4.6 mm). Gradient starting conditions of 5% MeCN/H2O (+0.1% Formic acid) were held for 1 min before development into 50% MeCN/H2O over 3 min, followed by development into 95% MeCN/H2O over 3 min. 95% MeCN/H2O was held for 1 min before equilibration back to starting conditions over 1 min. Starting conditions was held for 1 min followed by another 2 min post-run. Flow rates were kept constant at 1 mL/min. Column temperature was kept constant at 30° C. UV absorbance was detected at 220 nm, 254 nm and 210 nm throughout the run.
A substrate scope of the enzyme by the application of the Prnc enzyme on a list of structural diverse pyrrolic substrates is determined. An optimized co-factors regeneration protocol was used to regulate the generation of the activated halogen which is captured by the Prnc enzyme into the active site for the bioconversion. Reaction is conducted at ambient temperature of 30° C., in an aqueous non-toxic buffer solution with an environmentally friendly chloride source.

PrnC = molecular target: T2, PrnC (Pseudomonas fluorescens, UniProt P95482); assay: Optimization study of PrnC biocatalyst enzymatic assay conditions on the native substrate 1; assay type: biochemical
T2 construct: made in house; host or cells: T7 Express E. coli (NEB), pET-28a(+)
T2 sequence (P95482 with tags, fused parts or gaps): T1 sequence (P95482 with tags, fused parts or gaps)
Description: The conditions in the table above would be referred to as the standard conditions of the present invention; i.e. flavin-dependent halogenase (4 mol %), flavin adenine dinucleotide (FAD) (0.2 mol %), E. coli flavin reductase (Fre) (0.5 mol %), nicotinamide adenine dinucleotide hydrogen (NADH) (5.0 equiv), glucose 1-dehydrogenase (GdHi) (0.5 mol %), monosaccharide (10.0 equiv), halogen (20.0 equiv), buffer (10 mM, pH 7.4).
With the purified biocatalyst PrnC enzyme in hand, a preliminary optimization study of the enzymatic assay conditions was performed on the native substrate monodechloroaminopyrrolnitrin (1). The enzyme assays were carried out for 18 h with orbital shaking at 300 rpm and a temperature of 30° C. In addition to the substrate and PrnC, the reaction mixture contained FAD (0.1 equivalents relative to PrnC), NADH and E. coli flavin reductase (Fre), needed to generate FADH2 for the halogenation reaction. In initial assays, even using a super stoichiometric amount of NADH (5.0 equiv) (entry 1) only yielded 18% conversion to the desired product.

Structure (SMILES) | conversion yield (NT-11 PrnC) | further results
Clc1c[nH]cc1-c1ccccc1 [compound 8, 3-chloro-4-phenyl-1H-pyrrole] | 77% | 
Clc1c[nH]cc1-c1cccnc1 [compound 9, 3-(4-chloro-1H-pyrrol-3-yl)pyridine] | 73% | 
Nc1c(Cl)cccc1-c1c[nH]cc1Cl [compound 2, 2-chloro-6-(4-chloro-1H-pyrrol-3-yl)aniline] | 55% | conversion of 2 (%) (PrnC; entry 1: 2 mol% FAD (10x), no GdHi & glucose, 18 h, 30° C.): 18%; conversion of 2 (%) (PrnC; entry 2: 2 mol% FAD (10x), GdHi regen): 16%; conversion of 2 (%) (PrnC; entry 4: 1 mol% of Fre (2x)): 72%; conversion of 2 (%) (PrnC; entry 5: 0.05 Equiv NADH (Less 100x)): 32%; conversion of 2 (%) (PrnC; entry 6: 0.05 Equiv NADH (Less 100x) + 8 mol% PrnC (2x)): 53%; conversion of 2 (%) (PrnC; entry 7: 0.05 Equiv NADH (Less 100x) in Tris HCl buffer): 49%; conversion of 2 (%) (PrnC; standard conditions: PrnC 4 mol%, GdHi 0.5 mol%, FAD 0.2 mol%, Fre 0.5 mol%, NADH 5.0 equiv, glucose 10.0 equiv, MgCl2 20.0 equiv, phosphate buffer 10 mM pH 7.4): 91^b %
CC(=O)Nc1ccccc1-c1c[nH]cc1Cl [compound 3, N-(2-(4-chloro-1H-pyrrol-3-yl)phenyl)acetamide] | 18% | 
COc1ccccc1-c1c[nH]cc1Cl [compound 6, 3-chloro-4-(2-methoxyphenyl)-1H-pyrrole] | 41% | 
Cc1ccccc1-c1c[nH]cc1Cl [compound 5, 3-chloro-4-(o-tolyl)-1H-pyrrole] | 22% | 
Clc1c[nH]cc1-c1cnc2ccccc2c1 [compound 14, 3-(4-chloro-1H-pyrrol-3-yl) quinoline] | 63% | 
Nc1c(Cl)cccc1-c1[nH]ncc1Cl [compound 12, 2-chloro-6-(4-chloro-1H-pyrazol-5-yl)aniline] | 14% | 
Oc1ccccc1-c1c[nH]cc1Cl [compound 7, 2-(4-chloro-1H-pyrrol-3-yl)phenol] | 21% | 
Nc1ccccc1-c1cc(Cl)c[nH]1 [compound 11, 2-(4-chloro-1H-pyrrol-2-yl)aniline] | 68% | 
